Patent US5985910A, “3- [4- (2- Phenyl-Indole-1-ylmethyl) Phenyl]- Acrylamides as estrogenic agents” (priority 1997, dated 1999)

Columns and labels:
Ishikawa cells = assay: Ishikawa Cell Alkaline Phosphatase Assay; type: cell-based, human; settings: for % Activation (Compound ± 1 nM 17β-estradiol) (alkaline phosphatase): 10^-6 M compound + 1 nM 17β-estradiol, 48 h (antiestrogen test); for % Activation (alkaline phosphatase): compound alone, 48 h, percent of response related to 1 nM 17β-estradiol
Procedure: Ishikawa Cell Alkaline Phosphatase Assay
(§1) Cell Maintenance and Treatment
Ishikawa cells were maintained in DMEM/F12 (50%:50%) containing phenol red+10% fetal bovine serum and the medium was supplemented with 2 mM Glutamax, 1% Pen/Strap and 1 mM sodium pyruvate. Five days prior to the beginning of each experiment (treatment of cells) the medium was changed to phenol red-free DMEM/F12+10% dextran coated charcoal stripped serum. On the day before treatment, cells were harvested using 0.5% trypsin/EDTA and plated at a density of 5×10^4 cells/well in 96-well tissue culture plates. […] Cells were treated for 48 h prior to assay. […] Sample population for at each dose was n=8.
Alkaline Phosphatase Assay
At the end of 48 h the media is aspirated and cells are washed three times with phosphate buffered saline (PBS). 50 μL of lysis buffer (0.1 M Tris-HCl, pH 9.8, 0.2% Triton X-100) is added to each well. Plates are placed at -80° C. for a minimum of 15 minutes. Plates are thawed at 37° C. followed by the addition of 150 μL of 0.1 M Tris-HCl, pH 9.8, containing 4 mM para-nitrophenylphosphate (pNPP) to each well (final concentration, 3 mM pNPP).
Absorbance and slope calculations were made using the KineticCalc Application program (Bio-Tek Instruments, Inc., Winooski, Vt.). Results are expressed as the mean +/-S.D. of the rate of enzyme reaction (slope) averaged over the linear portion of the kinetic reaction curve (optical density readings every 5 minutes for 30 minutes absorbance reading).
Various compounds were assayed for estrogenic activity by the alkaline phosphatase method and corresponding ED50 values (95% C.I.) were calculated. The four listed in the following were used as reference standards:
A description of such methods is provided by Holinka, C. F., Hata, H., Kuramoto, H. and Gurpide, E. (1986) Effects of steroid hormones and antisteroids on alkaline phosphatase activity in human endometrial cancer cells (Ishikawa Line). Cancer Research, 46:2771-2774, and by Littlefield, B. A., Gurpide, E., Markiewicz, L., McKinley, B. and by Hochberg, R. B. (1990) A simple and sensitive microtiter plate estrogen bioassay based on stimulation alkaline phosphatase in Ishikawa cells; Estrogen action of D5 adrenal steroids. Endocrinology, 6:2757-2762.

estrogen receptor [1] = target: T1, estrogen receptor (Homo sapiens, UniProt P03372); assay: 2X VIT ERE Transfection (luciferase) Assay in CHO cells; type: cell-based; parameters: expressed in transfected cells; host or cells: Chinese Hamster Ovary (CHO) cells, stably transfected; settings: for % Activation with 1 nM 17β-estradiol (luciferase): 1 uM compound + 1 nM 17β-estradiol, 24 h (antagonism); for activation at 1 µM: CHO, 24 h
T1 sequence (P03372 1-595): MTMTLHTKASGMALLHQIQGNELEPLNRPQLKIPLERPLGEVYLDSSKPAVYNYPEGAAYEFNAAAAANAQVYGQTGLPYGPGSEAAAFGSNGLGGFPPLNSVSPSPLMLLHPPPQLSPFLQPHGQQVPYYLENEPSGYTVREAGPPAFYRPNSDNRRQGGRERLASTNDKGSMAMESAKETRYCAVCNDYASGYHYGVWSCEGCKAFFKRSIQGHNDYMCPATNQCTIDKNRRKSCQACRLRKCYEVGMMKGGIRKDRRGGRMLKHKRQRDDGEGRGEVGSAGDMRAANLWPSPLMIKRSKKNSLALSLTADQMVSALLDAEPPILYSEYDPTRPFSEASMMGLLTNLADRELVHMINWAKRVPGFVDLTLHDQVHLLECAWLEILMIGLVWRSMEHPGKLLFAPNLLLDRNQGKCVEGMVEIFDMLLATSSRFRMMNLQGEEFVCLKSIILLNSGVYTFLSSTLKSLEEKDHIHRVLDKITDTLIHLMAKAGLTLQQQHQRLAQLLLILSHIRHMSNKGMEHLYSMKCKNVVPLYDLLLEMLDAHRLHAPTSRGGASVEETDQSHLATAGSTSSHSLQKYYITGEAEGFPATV
Procedure: 2X VIT ERE Transfection Assay
as §1
Chinese Hamster Ovary cells (CHO) which had been stably transfected with the human estrogen receptor were maintained in DMEM+10% fetal bovine serum (FBS). 48 h prior to treatment the growth medium was replaced with DMEM lacking phenol red +10% dextran coated charcoal stripped FBS (treatment medium). Cells were plated at a density of 5000 cells/well in 96-well plates containing 200 μL of medium/well.
Calcium Phoshate Transfection
Reporter DNA (Promega plasmid pGL2 containing two tandem copies of the vitellogenin ERE in front of the minimal thymidine kinase promoter driving the luciferase gene) was combined with the B-galactosidase expression plasmid pCH110 (Pharmacia) and carrier DNA (pTZ18U) in the following ratio:
20 uL of this mixture was added to each well of cells and remained on the cells for 16 h. […] Each treatment condition was performed on 8 wells (n=8) which were incubated for 24 h prior to the luciferase assay.
After removing the PBS, 25 uL of Promega lysis buffer was added to each well and allowed to stand at room temperature for 15 min, followed by 15 min at -80° C. and 15 min at 37° C. 20 uL of lysate was transferred to an opaque 96 well plate for luciferase activity evaluation and the remaining lysate (5 uL) was used for the B-galactosidase activity evaluation (normalize transfection). The luciferan substrate (Promega) was added in 100 uL aliquots to each well automatically by the luminometer and the light produced (relative light units) was read 10 seconds after addition.
To the remaining 5 uL of lysate 45 uL of PBS was added. Then 50 uL of Promega B-galactosidase 2× assay buffer was added, mixed well and incubated at 37° C. for 1 hour. A plate containing a standard curve (0.1 to 1.5 milliunits in triplicate) was set up for each experimental run. The plates were analyzed on a Molecular Devices spectrophotometric plate reader at 410 nm. The optical densities for the unknown were converted to milliunits of activity by mathematical extrapolation from the standard curve.
The luciferase data was generated as relative light units (RLUs) accumulated during a 10 second measurement and automatically transferred to a JMP (SAS Inc) file where background RLUs were subtracted. The B-galactosidase values were automatically imported into the file and these values were divided into the RLUs to normalize the data. The mean and standard deviations were determined from a n=8 for each treatment. […] These techniques are described by Tzukerman, M. T., Esty, A., Santiso-Mere, D., Danielian, P., Parker, M. G., Stein, R. B., Pike, J. W. and McDonnel, D. P. (1994). Human estrogen receptor transactivational capacity was determined by both cellular and promoter context and mediated by two functionally distinct intramolecular regions (see Molecular Endocrinology, 8:21-30).

estrogen receptor [2] = target: T1, estrogen receptor; assay: In Vitro Estrogen Receptor Binding Assay ([3H]-17β-estradiol competition, cytosol of CHO cells overexpressing the estrogen receptor); parameters: made in house; host or cells: CHO cells overexpressing the receptor; 100,000 g cytosol
Procedure: In Vitro Estrogen Receptor Bonding Assay
CHO cells overexpressing the estrogen receptor were grown in 150 mm^2 dishes in DMEM+10% dextran coated charcoal, stripped fetal bovine serum. The plates were washed twice with PBS and once with 10 mM Tris-HCl, pH 7.4, 1 mM EDTA. Cells were harvested by scraping the surface and then the cell suspension was placed on ice. Cells were disrupted with a hand-held motorized tissue grinder using two, 10-second bursts. […] The cytosol was then frozen and stored at -80° C. Protein concentration of the cytosol was estimated using the BCA assay with reference standard protein.
100 uG/100 uL of the receptor preparation was aliquoted per well. […] The plate was incubated at room temperature for 2.5 h. […] 200 uL of the supernatant solution was then removed for scintillation counting. Samples were counted to 2% or 10 minutes, whichever occurs first. […] Also, wells containing radioactivity but no cytosol were processed with charcoal to estimate unremovable DPM of [^3 H] […].
Counts per minute (CPM) of radioactivity were automatically converted to disintegrated per minute (DPM) by the Beckman LS 7500 Scintillation Counter using a set of quenched standards to generate a H# for each sample.
((DPM sample-DPM not removed by charcoal)/(DPM estradiol-DPM not removed by charcoal))×100%=% of estradiol binding
For the generation of IC50 curves, % binding is plotted vs compound. […] For a description of these methods, see Hulme, E. C., ed. […] Receptor-Ligand Interactions: A Practical Approach. IRL Press, New York (see especially chapter 8).

uteri = assay: Rat Uterotrophic/Antiuterotrophic Bioassay (results headed 3-Day Ovariectomized Rat Model); type: in vivo, rat (Sprague-Dawley); settings: 1 μG; Example 12 experiment, control = 31.4 mg
Procedure: Rat Uterotrophic/Antiuterotrophic Bioassay
Immature Sprague-Dawley rats (female, 18 days old) were tested in groups of six. […] On day 4 the animals were sacrificed by CO2 asphyxiation and their uteri were removed and stripped of excess lipid, any fluid removed and the wet weight determined. A small section of one horn was submitted for histology and the remainder used to isolate total RNA in order to evaluate complement component 3 gene expression.

| Compound | % Activation (Compound ± 1 nM 17β-estradiol) (alkaline phosphatase) (Ishikawa cells) [%] | % Activation (alkaline phosphatase) (Ishikawa cells) [%] | % Activation with 1 nM 17β-estradiol (luciferase) (estrogen receptor [1]) [%] | activation at 1 µM (estrogen receptor [1]) [%] | Estrogen Receptor Affinity (RBA) (estrogen receptor [2]) | uterine wet weight, 1 μG 17β-estradiol (uteri) [mg] |
| --- | --- | --- | --- | --- | --- | --- |
| Cc1c(-c2ccc(O)cc2)n(Cc2ccc(/C=C/C(=O)N3CCCC3)cc2)c2ccc(O)cc12 [Example 9, (E)-Pyrrolidino-3-{4-[5-hydroxy-2-(4-hydroxy-phenyl)-3-methyl-indol-1-ylmethyl]-phenyl}-acrylamide] | 11 | 3 | 8 | 6 | – | – |
| CNC(=O)/C=C/c1ccc(Cn2c(-c3ccc(O)cc3)c(C)c3cc(O)ccc32)cc1 [Example 15, (E)-N,Methyl-3-{4-[5-hydroxy-2-(4-hydroxy-phenyl)-3-methyl-indol-1-ylmethyl]-phenyl}-acrylamide] | 5 | 0 | 31 | 15 | 53 | – |
| Cc1c(-c2ccc(O)cc2)n(Cc2ccc(/C=C/C(=O)N(C)C)cc2)c2ccc(O)cc12 [Example 10, (E)-N,N-Dimethyl-3-{4-[5-hydroxy-2-(4-hydroxy-phenyl)-3-methyl-indol-1-ylmethyl]-phenyl}-acrylamide] | 19 | 6 | 2 | 1 | 20 | – |
| Cc1c(-c2ccc(O)cc2)n(Cc2ccc(/C=C/C(=O)NC(C)(C)C)cc2)c2ccc(O)cc12 [Example 8, 1(E)-N-tert-butyl-3-{4-[5-hydroxy-2-(4-hydroxy-phenyl)-3-methyl-indol-1-ylmethyl]-phenyl}-acrylamide] | 22 | 10 | 78 | 6 | 40 | – |
| Cc1c(-c2ccc(O)cc2)n(Cc2ccc(/C=C/C(N)=O)cc2)c2ccc(O)cc12 [Example 14, (E)-3-{4-[5-hydroxy-2-(4-hydroxy-phenyl)-3-methyl-indol-1-ylmethyl]-phenyl}-acrylamide] | 14 | 2 | 57 | 19 | 32 | – |
| Cc1c(-c2ccc(O)cc2)n(Cc2ccc(/C=C/C(=O)N3CCOCC3)cc2)c2ccc(O)cc12 [Example 13] | 9 | 7 | 17 | 8 | – | – |
| C[C@]12CC[C@@H]3c4ccc(O)cc4CC[C@H]3[C@@H]1CC[C@@H]2O [17β-estradiol, reference compound] | – | – | – | – | – | 89.0 |
| CCN(CC)C(=O)/C=C/c1ccc(Cn2c(-c3ccc(O)cc3)c(C)c3cc(O)ccc32)cc1 [Example 7, (E)-N,N-Diethyl-3-{4-[5-hydroxy-2-(4-hydroxy-phenyl)-3-methyl-indol-1-ylmethyl]-phenyl}-acrylamide] | 9 | 1 | 8 | 4 | 42 | – |
| CCCCN(C)C(=O)/C=C/c1ccc(Cn2c(-c3ccc(O)cc3)c(C)c3cc(O)ccc32)cc1 [Example 12, (E)-N-Butyl. N'-methyl-3-{4-[5-hydroxy-2-(4-hydroxy-phenyl)-3-methyl-indol-1-ylmethyl]-phenyl}-acrylamide] | 16 | 7 | 24 | 13 | 114 | – |
